# Data reported in paper PMC4311625, “Structural determinants for binding to angiotensin converting enzyme 2 (ACE2) and angiotensin receptors 1 and 2” (Frontiers in Pharmacology, 2015).
# Peptide text beside a SMILES is read from it.
# Target: ACE2 (Homo sapiens, UniProt Q9BYF1)
# Assay: ACE2 quenched fluorescence substrate (QFS) inhibition assay
# Assay type: biochemical
# Conditions: pH 6.5, read-out: ACE2 inhibition of terminally modified IHPF analogs, 100 μM (Table 3)
# Description: Angiotensin converting enzyme 2 QFS assays were performed for 1 h in 50 uM QFS, 1 M NaCl, 100 mM Tris-Cl, pH 6.5 at 37∘C on a BMG LabTechnologies (Offenburg, Germany), FLUOStar Optima in a 96 well-plate. Subsequent data analysis determined the inhibition of native AngII, its analogs and C-terminal peptides compared to the ACE2 QFS substrate [MCA-APK(DNP)-OH, [Vickers et al., 2002]]. […] Three controls were included in each ACE2 QFS assay; AngII (100 and 10 μM), IHPF (100 μM) and a known ACE2 inhibitor (1 nM; Millennium Pharmaceuticals, Cambridge, MA, USA). QFS assay results were accepted when ACE2 inhibition by AngII (10 μM) was 80 ± 5%, IHPF was 65 ± –5% and the ([Qian et al., 1999]) ‘Millennium Inhibitor’ was 70 ± –5%. Acceptable coefficients of variation (CV; standard deviation/mean × 100) for sample triplicates were <7%.
# A library of 40 tetrapeptides based on the four C-terminal residues of Ang II (Ile-His-Pro-Phe/IHPF) was generated and screened for ACE2 binding at 100 μM in order to identify key residues of the C-terminus of Ang II involved in binding to the ACE2 active site. […] Several substitutions (Val, Tyr, Ala, Gly, Phe, Trp, Pro, His, Ile, and Leu) were made in order to further probe the highly hydrophobic and cyclic specificity of the C-terminus of Ang II. A β-napthalene amino acid (Nth) derivative was used as a highly hydrophobic non-natural cyclic residue substitute, and Arg and Lys were substituted for histidine at the second position from the N-terminus of the tetrapeptide to determine if positive charge or other structural or positional requirements were important.
# ACE2, sequence (Q9BYF1 18-805, species assumed): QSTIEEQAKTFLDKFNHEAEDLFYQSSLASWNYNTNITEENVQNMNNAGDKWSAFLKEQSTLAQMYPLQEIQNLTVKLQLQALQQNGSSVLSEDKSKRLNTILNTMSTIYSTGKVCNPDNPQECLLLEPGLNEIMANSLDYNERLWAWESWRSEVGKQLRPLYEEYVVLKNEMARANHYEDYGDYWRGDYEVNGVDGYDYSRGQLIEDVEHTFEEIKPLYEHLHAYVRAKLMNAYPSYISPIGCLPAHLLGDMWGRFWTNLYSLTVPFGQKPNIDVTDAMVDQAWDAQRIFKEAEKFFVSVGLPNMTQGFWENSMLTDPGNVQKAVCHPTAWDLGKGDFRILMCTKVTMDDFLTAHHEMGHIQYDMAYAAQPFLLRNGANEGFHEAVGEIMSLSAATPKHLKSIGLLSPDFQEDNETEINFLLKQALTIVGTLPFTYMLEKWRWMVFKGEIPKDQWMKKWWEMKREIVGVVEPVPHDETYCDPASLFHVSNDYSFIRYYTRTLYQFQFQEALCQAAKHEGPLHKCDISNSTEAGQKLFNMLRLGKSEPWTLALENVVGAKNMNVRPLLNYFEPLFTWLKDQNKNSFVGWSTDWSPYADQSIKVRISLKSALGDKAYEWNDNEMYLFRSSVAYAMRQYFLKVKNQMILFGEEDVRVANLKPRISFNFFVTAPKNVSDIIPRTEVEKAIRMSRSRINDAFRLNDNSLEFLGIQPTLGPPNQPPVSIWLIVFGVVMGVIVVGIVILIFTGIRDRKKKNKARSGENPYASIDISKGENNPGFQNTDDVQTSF
row,SMILES,inhibition at 100 µM
1,CC[C@H](C)[C@H](N)C(=O)N[C@@H](Cc1ccc(O)cc1)C(=O)N1CCC[C@H]1C(=O)N[C@@H](Cc1ccccc1)C(N)=O [C-amidated IYPF] (H-IYPF-NH2),8%
2,NC(=O)[C@H](Cc1ccccc1)NC(=O)[C@@H]1CCCN1C(=O)[C@H](Cc1ccc(O)cc1)NC(=O)[C@@H]1CCCN1 [C-amidated PYPF] (H-PYPF-NH2),33%
3,CC(C)[C@H](N)C(=O)N[C@@H](Cc1ccc(O)cc1)C(=O)N1CCC[C@H]1C(=O)N[C@@H](Cc1ccccc1)C(N)=O [C-amidated VYPF] (H-VYPF-NH2),25%

# Same assay, conditions: peptide 100 μM; 50 uM QFS MCA-APK(DNP)-OH, 1 M NaCl, 100 mM Tris-Cl pH 6.5, 37 °C, 1 h, fluorescence; triplicate; read-out: ACE2 inhibition of single substitution analogs of the C-terminal of AngII (Table 1)
row,SMILES,inhibition at 100 µM
1,C[C@H](N)C(=O)N[C@@H](Cc1c[nH]cn1)C(=O)N1CCC[C@H]1C(=O)N[C@@H](Cc1ccccc1)C(=O)O [AHPF] (H-AHPF-OH),59%
2,N[C@@H](Cc1ccccc1)C(=O)N[C@@H](Cc1c[nH]cn1)C(=O)N1CCC[C@H]1C(=O)N[C@@H](Cc1ccccc1)C(=O)O [FHPF] (H-FHPF-OH),48%
3,NCC(=O)N[C@@H](Cc1c[nH]cn1)C(=O)N1CCC[C@H]1C(=O)N[C@@H](Cc1ccccc1)C(=O)O [GHPF] (H-GHPF-OH),0%
4,N[C@@H](Cc1c[nH]cn1)C(=O)N[C@@H](Cc1c[nH]cn1)C(=O)N1CCC[C@H]1C(=O)N[C@@H](Cc1ccccc1)C(=O)O [HHPF] (H-HHPF-OH),12%
5,CC[C@H](C)[C@H](N)C(=O)N[C@@H](C)C(=O)N1CCC[C@H]1C(=O)N[C@@H](Cc1ccccc1)C(=O)O [IAPF] (H-IAPF-OH),37%
6,CC[C@H](C)[C@H](N)C(=O)N[C@@H](Cc1ccccc1)C(=O)N1CCC[C@H]1C(=O)N[C@@H](Cc1ccccc1)C(=O)O [IFPF] (H-IFPF-OH),0%
7,CC[C@H](C)[C@H](N)C(=O)NCC(=O)N1CCC[C@H]1C(=O)N[C@@H](Cc1ccccc1)C(=O)O [IGPF] (H-IGPF-OH),39%
8,CC[C@H](C)[C@H](N)C(=O)N[C@@H](Cc1c[nH]cn1)C(=O)N[C@@H](C)C(=O)N[C@@H](Cc1ccccc1)C(=O)O [IHAF] (H-IHAF-OH),19%
9,CC[C@H](C)[C@H](N)C(=O)N[C@@H](Cc1c[nH]cn1)C(=O)N[C@@H](Cc1ccccc1)C(=O)N[C@@H](Cc1ccccc1)C(=O)O [IHFF] (H-IHFF-OH),0%
10,CC[C@H](C)[C@H](N)C(=O)N[C@@H](Cc1c[nH]cn1)C(=O)NCC(=O)N[C@@H](Cc1ccccc1)C(=O)O [IHGF] (H-IHGF-OH),0%
11,CC[C@H](C)[C@H](N)C(=O)N[C@@H](Cc1c[nH]cn1)C(=O)N[C@@H](Cc1c[nH]cn1)C(=O)N[C@@H](Cc1ccccc1)C(=O)O [IHHF] (H-IHHF-OH),14%
12,CC[C@H](C)[C@H](N)C(=O)N[C@@H](Cc1c[nH]cn1)C(=O)N[C@H](C(=O)N[C@@H](Cc1ccccc1)C(=O)O)[C@@H](C)CC [IHIF] (H-IHIF-OH),44%
13,CC[C@H](C)[C@H](N)C(=O)N[C@@H](Cc1c[nH]cn1)C(=O)N[C@@H](CC(C)C)C(=O)N[C@@H](Cc1ccccc1)C(=O)O [IHLF] (H-IHLF-OH),0%
14,CC[C@H](C)[C@H](N)C(=O)N[C@@H](Cc1c[nH]cn1)C(=O)N1CCC[C@H]1C(=O)N[C@@H](C)C(=O)O [IHPA] (H-IHPA-OH),44%
15,"CC[C@H](C)[C@H](N)C(=O)N[C@@H](Cc1c[nH]cn1)C(=O)N1CCC[C@H]1C(=O)N[C@@H](Cc1ccccc1)C(=O)O [IHPF, Ile-His-Pro-Phe, reference compound] (H-IHPF-OH)",62%
16,CC[C@H](C)[C@H](N)C(=O)N[C@@H](Cc1c[nH]cn1)C(=O)N1CCC[C@H]1C(=O)NCC(=O)O [IHPG] (H-IHPG-OH),41%

row,SMILES,inhibition at 100 µM
1,CC[C@H](C)[C@H](N)C(=O)N[C@@H](Cc1c[nH]cn1)C(=O)N1CCC[C@H]1C(=O)N[C@@H](Cc1c[nH]cn1)C(=O)O [IHPH] (H-IHPH-OH),54%
2,CC[C@H](C)[C@H](N)C(=O)N[C@@H](Cc1c[nH]cn1)C(=O)N1CCC[C@H]1C(=O)N[C@H](C(=O)O)[C@@H](C)CC [IHPI] (H-IHPI-OH),36%
3,CC[C@H](C)[C@H](N)C(=O)N[C@@H](Cc1c[nH]cn1)C(=O)N1CCC[C@H]1C(=O)N[C@@H](CC(C)C)C(=O)O [IHPL] (H-IHPL-OH),48%
4,CC[C@H](C)[C@H](N)C(=O)N[C@@H](Cc1c[nH]cn1)C(=O)N1CCC[C@H]1C(=O)N[C@H](C(=O)O)C(C)C [IHPV] (H-IHPV-OH),18%
5,CC[C@H](C)[C@H](N)C(=O)N[C@@H](Cc1c[nH]cn1)C(=O)N1CCC[C@H]1C(=O)N[C@@H](Cc1c[nH]c2ccccc12)C(=O)O [IHPW] (H-IHPW-OH),57%
6,CC[C@H](C)[C@H](N)C(=O)N[C@@H](Cc1c[nH]cn1)C(=O)N1CCC[C@H]1C(=O)N[C@@H](Cc1ccc(O)cc1)C(=O)O [IHPY] (H-IHPY-OH),50%
7,CC[C@H](C)[C@H](N)C(=O)N[C@@H](Cc1c[nH]cn1)C(=O)N[C@H](C(=O)N[C@@H](Cc1ccccc1)C(=O)O)C(C)C [IHVF] (H-IHVF-OH),77%
8,CC[C@H](C)[C@H](N)C(=O)N[C@@H](Cc1c[nH]cn1)C(=O)N[C@@H](Cc1c[nH]c2ccccc12)C(=O)N[C@@H](Cc1ccccc1)C(=O)O [IHWF] (H-IHWF-OH),0%
9,CC[C@H](C)[C@H](N)C(=O)N[C@@H](Cc1c[nH]cn1)C(=O)N[C@@H](Cc1ccc(O)cc1)C(=O)N[C@@H](Cc1ccccc1)C(=O)O [IHYF] (H-IHYF-OH),1%
10,CC[C@H](C)[C@H](N)C(=O)N[C@H](C(=O)N1CCC[C@H]1C(=O)N[C@@H](Cc1ccccc1)C(=O)O)[C@@H](C)CC [IIPF] (H-IIPF-OH),32%
11,CC[C@H](C)[C@H](N)C(=O)N[C@@H](CCCCN)C(=O)N1CCC[C@H]1C(=O)N[C@@H](Cc1ccccc1)C(=O)O [IKPF] (H-IKPF-OH),28%
12,CC[C@H](C)[C@H](N)C(=O)N1CCC[C@H]1C(=O)N1CCC[C@H]1C(=O)N[C@@H](Cc1ccccc1)C(=O)O [IPPF] (H-IPPF-OH),0%
13,CC[C@H](C)[C@H](N)C(=O)N[C@@H](CCCNC(=N)N)C(=O)N1CCC[C@H]1C(=O)N[C@@H](Cc1ccccc1)C(=O)O [IRPF] (H-IRPF-OH),33%
14,CC[C@H](C)[C@H](N)C(=O)N[C@H](C(=O)N1CCC[C@H]1C(=O)N[C@@H](Cc1ccccc1)C(=O)O)C(C)C [IVPF] (H-IVPF-OH),28%
15,CC[C@H](C)[C@H](N)C(=O)N[C@@H](Cc1c[nH]c2ccccc12)C(=O)N1CCC[C@H]1C(=O)N[C@@H](Cc1ccccc1)C(=O)O [IWPF] (H-IWPF-OH),40%
16,CC[C@H](C)[C@H](N)C(=O)N[C@@H](Cc1ccc(O)cc1)C(=O)N1CCC[C@H]1C(=O)N[C@@H](Cc1ccccc1)C(=O)O [IYPF] (H-IYPF-OH),87%

# Same assay, conditions: peptide 100 μM; 50 uM QFS, 1 M NaCl, 100 mM Tris-Cl pH 6.5, 37 °C, 1 h; triplicate; read-out: Inhibition (%) of ACE2, single and multiple residue substitution analogs (Table 2)
row,SMILES,inhibition at 100 µM
1,CC[C@H](C)[C@H](N)C(=O)N[C@@H](Cc1c[nH]cn1)C(=O)N[C@H](C(=O)N[C@@H](Cc1ccccc1)C(=O)O)C(C)C [IHVF] (H-IHVF-OH),77%
2,CC[C@H](C)[C@H](N)C(=O)N[C@@H](Cc1ccc(O)cc1)C(=O)N[C@H](C(=O)N[C@@H](Cc1ccccc1)C(=O)O)C(C)C [IYVF] (H-IYVF-OH),77%

# Same assay, conditions: read-out: ACE2 inhibition of terminally modified IHPF analogs, 10 μM (Table 3, in brackets); peptide 10 μM; 50 uM QFS, 1 M NaCl, 100 mM Tris-Cl pH 6.5, 37 °C, 1 h
row,SMILES,inhibition at 10 µM
1,CC(C)[C@H](N)C(=O)N[C@@H](Cc1c[nH]cn1)C(=O)N[C@H](C(=O)N[C@@H](Cc1ccccc1)C(N)=O)C(C)C [C-amidated VHVF] (H-VHVF-NH2),40%
2,"CC[C@H](C)[C@H](N)C(=O)N[C@@H](Cc1c[nH]cn1)C(=O)N1CCC[C@H]1C(=O)N[C@@H](Cc1ccccc1)C(=O)O [IHPF, Ile-His-Pro-Phe, reference compound] (H-IHPF-OH)",22%
3,CC[C@H](C)[C@H](N)C(=O)N[C@@H](Cc1ccc(O)cc1)C(=O)N1CCC[C@H]1C(=O)N[C@@H](Cc1ccccc1)C(=O)O [IYPF] (H-IYPF-OH),35%

# Same assay, conditions: read-out: ACE2 inhibition of terminally modified IHPF analogs, 100 μM (Table 3); peptide 100 μM; 50 uM QFS, 1 M NaCl, 100 mM Tris-Cl pH 6.5, 37 °C, 1 h
row,SMILES,inhibition at 100 µM
1,CC[C@H](C)[C@H](N)C(=O)N[C@@H](Cc1c[nH]cn1)C(=O)N1CCC[C@H]1C(=O)N[C@@H](Cc1ccccc1)C(N)=O [C-amidated IHPF] (H-IHPF-NH2),18%
2,NC(=O)[C@H](Cc1ccccc1)NC(=O)[C@@H]1CCCN1C(=O)[C@H](Cc1c[nH]cn1)NC(=O)[C@@H]1CCCN1 [C-amidated PHPF] (H-PHPF-NH2),1%
3,CC(C)[C@H](NC(=O)[C@H](Cc1c[nH]cn1)NC(=O)[C@@H]1CCCN1)C(=O)N[C@@H](Cc1ccccc1)C(N)=O [C-amidated PHVF] (H-PHVF-NH2),12%
4,CC(C)[C@H](NC(=O)[C@H](Cc1ccc(O)cc1)NC(=O)[C@@H]1CCCN1)C(=O)N[C@@H](Cc1ccccc1)C(N)=O [C-amidated PYVF] (H-PYVF-NH2),26%
5,CC(C)[C@H](N)C(=O)N[C@@H](Cc1c[nH]cn1)C(=O)N[C@H](C(=O)N[C@@H](Cc1ccccc1)C(N)=O)C(C)C [C-amidated VHVF] (H-VHVF-NH2),86%
6,"CC[C@H](C)[C@H](N)C(=O)N[C@@H](Cc1c[nH]cn1)C(=O)N1CCC[C@H]1C(=O)N[C@@H](Cc1ccccc1)C(=O)O [IHPF, Ile-His-Pro-Phe, reference compound] (H-IHPF-OH)",66%
7,CC[C@H](C)[C@H](N)C(=O)N[C@@H](Cc1ccc(O)cc1)C(=O)N1CCC[C@H]1C(=O)N[C@@H](Cc1ccccc1)C(=O)O [IYPF] (H-IYPF-OH),84%
